# Experimental data reported in patent US6218431A, “Substituted biphenyls” (Bayer Corporation, priority 1997, dated 2001).
# Target: T1, glucagon receptor (Homo sapiens, UniProt P47871)
# T1 construct: expressed in transfected cells; host or cells: Chinese Hamster Ovary cells (CHO-HGR), membranes
# Experiment: glucagon receptor binding assay (125I-glucagon, CHO-HGR membranes)
# Conditions: 20 μM; reported where 20 μM did not reduce glucagon binding by 50%
# Protocol: The affinity for the glucagon receptor of compounds of the present invention is determined by the glucagon receptor binding assay. Membranes were prepared from Chinese Hamster Ovary cells expressing the glucagon receptor (CHO-HGR) by scraping the cells into hypotonic lysis buffer (10 mM Tris, pH 7.4, 2 mM EDTA, 5 mM MgCl2 and 1 mM PMSF) and subjecting the material to Polytron homogenization. Nuclei were removed by a 15-min 800×g centrifugation step conducted at 4° C. Membranes containing the receptor were collected by centrifugation at 15,000×gfor 15 min at 4° C. The membranes were washed once in lysis buffer and suspended in 0.25 M sucrose, 10 mM Tris, 5 mM EDTA, pH 7.4. The membranes were used in ligand binding studies as reported (Yoo-Warren, H., Willse, A. G., Hancock, N., Hull, J., McCaleb, M., and Livingston, J. Regulation of Rat Glucagon Receptor Expression. Biochem. Biophysical Res. Commun. 1994, 205, 347-353). In brief, 10 ug of membrane protein was incubated in 130 μl of binding buffer that consisted of 20 mM Tris, […], 1 mM EDTA, 1 mg/ml BSA, and 1 mg/ml bacitracin. The membrane suspension was placed in each well of a 96-well filtration plate (glass fiber type C, Millipore). […] Following the addition of test compound, 50 μl of ^125 I-glucagon (9 fmol) (NEN) was added to each well. Control wells contained membranes, 0.5% DMSO (solvent for test compounds), radiolabeled glucagon without and with excess native glucagon (1 μM) to establish nonspecific binding. The plates were incubated for 60 min at room temperature, and then filtered on a Mllipore vacuum apparatus. Following a wash step with ice-cold PBS/0.1% BSA, the filters were punched into test tubes, and the membrane bound radioactivity was determined.
# T1 sequence (P47871 26-477): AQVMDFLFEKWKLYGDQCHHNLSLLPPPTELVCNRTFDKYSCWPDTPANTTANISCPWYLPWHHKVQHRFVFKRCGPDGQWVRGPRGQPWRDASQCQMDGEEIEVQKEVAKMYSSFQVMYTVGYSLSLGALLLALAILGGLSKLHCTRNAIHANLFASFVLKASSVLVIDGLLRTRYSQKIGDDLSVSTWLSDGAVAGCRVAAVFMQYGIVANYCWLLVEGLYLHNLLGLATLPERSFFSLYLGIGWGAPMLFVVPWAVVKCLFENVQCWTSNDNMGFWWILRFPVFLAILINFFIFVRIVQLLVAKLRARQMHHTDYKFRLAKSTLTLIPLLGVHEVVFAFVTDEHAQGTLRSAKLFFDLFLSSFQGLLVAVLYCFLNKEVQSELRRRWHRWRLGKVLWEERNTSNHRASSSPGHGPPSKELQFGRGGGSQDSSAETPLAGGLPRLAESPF
row,inhibition at 20 µM [%],Structure (SMILES)
1,39,"CCCC=Cc1c(C(C)C)nc(C(C)C)c(CO)c1-c1ccc(Cl)c(Cl)c1 [Example 149, 2,6-Diisopropyl3-hydroxymethyl-4-(3,4-dichlorophenyl)-5-(pent-1-enyl)pyridine]"
2,21,"CCCC=Cc1c(C(C)C)nc(C(C)C)c(CO)c1-c1ccc(OCc2ccccc2)cc1 [Example 160, 2,6-Diisopropyl-3-hydroxymethyl-4-(4-benzyloxyphenyl)-5-(pent-1-enyl)pyridine]"
3,44.6,"C=CC(O)c1nc(C(C)C)c(CO)c(-c2ccc(F)cc2)c1CCCCC (stereo not drawn) [Example 206, 2-(1-Hydroxyprop-2-enyl)-3-pentyl-4-(4-fluorophenyl)-5-hydroxymethyl-6-isopropylpyridine]"

# Continued, molecule first:
row,Structure (SMILES),inhibition at 20 µM [%]
1,"CCCCCc1c(C(C)C)nc(C(C)C)c(CO)c1-c1ccc(CC)cc1 [Example 132, 2,6-Diisopropyl-3-hydroxymethyl-4-(4-ethylphenyl)-5-pentylpyridine]",42.5
2,"CCCCCc1c(C(C)C)nc(C(C)C)c(CN(C)C)c1-c1ccc(F)cc1 [Example 122, 2,6-Diisopropyl-3-(dimethylamino)methyl-4-(4-fluorophenyl)-5-pentyl-pyridine]",7.54
3,"CC(C)c1nc(C(C)C)c(CSc2ccc(O)cc2)c(-c2ccc(F)cc2)c1CO [Example 55, 2,6-Diisopropyl-3-hydroxymethyl-4-(4-fluorophenyl)-5-[(4-hydroxy-phenyl)thio]methylpyridine]",15.7
4,"CC(C)c1nc(C(C)C)c(CN2CCN(c3ccccc3)CC2)c(-c2ccc(F)cc2)c1CO [Example 75, 2,6-Diisopropyl-3-hydroxymethyl-4-(4-fluorophenyl)-5-[(4-phenylpiperazin-1-yl)methyl]pyridine]",34.2
5,"CCC(O)c1c(C(C)C)nc(C(C)C)c(CO)c1-c1ccc(F)cc1 (racemic) [Example 94, (±)-2,6-Diisopropyl-3-hydroxymethyl-4-(4-fluorophenyl)-5-(1-hydroxy-propyl)pyridine]",38.5

# Same assay, conditions: 125I-glucagon; 60 min at room temperature; read-out: IC50
row,IC50 [nM],Structure (SMILES)
1,3000,"CCCCCc1c(C=C(C)C)nc(C(C)C)c(CO)c1-c1ccc(F)cc1 [Example 226, 2-Isopropyl-3-hydroxymethyl-4-(4-fluorophenyl)-5-pentyl-6-(2-methylpropenyl)pyridine]"
2,110,"CCCc1c(C(C)C)cc(C(C)C)c(CO)c1-c1ccc(F)cc1O (racemic) [Example 241, 3,5-Diisopropyl-2-hydroxymethyl-6-propyl-4'-fluoro-2'-hydroxy-1,1'-biphenyl]"
3,310,"Cc1ccc(COCc2c(C(C)C)cc(C(C)C)c(C(C)O)c2-c2ccc(F)cc2)cc1 (single isomer, unassigned; (+)) [Example 248, (+)-3,5-Diisopropyl-2-[(p-methylbenzyloxy)methyl]-6-(1-hydroxyethyl)-4'-fluoro-1,1'-biphenyl]"
4,100,"CCCCCc1c(C(C)C)nc(C(C)C)c(C(C)O)c1-c1ccccc1O (single isomer, unassigned) [Example 164-D2, 2,6-Diisopropyl-3-(1-hydroxyethyl)-4-(2-hydroxyphenyl)-5-pentylpyridine]"
5,130,"Cc1ccc(SCc2c(C(C)C)cc(C(C)C)c(C(C)O)c2-c2ccc(F)cc2)cc1 (single isomer, unassigned; (+)) [Example 249, (+)-3,5-Diisopropyl-2-[(p-tolylthio)methyl]-6-(1-hydroxyethyl)-4'-fluoro-1,1'-biphenyl]"
6,5,"CCCc1c(C(C)C)cc(C(C)C)c(C(C)O)c1-c1ccc(F)cc1O (stereo not drawn) [Example 242, 3,5-Diisopropyl-2-(1-hydroxyethyl)-6-propyl-4'-fluoro-2'-hydroxy-1,1'-biphenyl]"
7,9000,"CCCCCc1c(COCC)nc(C(C)C)c(CO)c1-c1ccc(F)cc1 [Example 202, 2-Ethoxymethyl-3-pentyl-4-(4-fluorophenyl)-5-hydroxymethyl-6-isopropylpyridine]"
8,19000,"CCCCCc1c(C=CC(=O)OC)nc(C(C)C)c(CO)c1-c1ccc(F)cc1 [Example 215, 2-(2-Carbomethoxyethenyl)-3-pentyl-4-(4-fluorophenyl)-5-hydroxymethyl-6-isopropylpyridine]"

# Second part, the molecule before the results:
row,Structure (SMILES),IC50 [nM]
1,"CC(C)c1nc(C(C)C)c(CSc2ccc(F)cc2)c(-c2ccc(F)cc2)c1CO [Example 49, 2,6-Diisopropyl-3-hydroxymethyl-4-(4-fluorophenyl)-5-[(4-fluoro-phenyl)thio]methylpyridine]",1100
2,"CCCCC=Cc1c(C(C)C)nc(C(C)C)c(CO)c1-c1ccc(F)cc1 [Example 19, 2,6-Diisproyl-3-hyroxymethyl-4-(4-fluorophenyl)-5-(1-hexenyl)-pyridine]",700
3,"Cc1cc(C)cc(SCc2c(C(C)C)nc(C(C)C)c(CO)c2-c2ccc(F)cc2)c1 [Example 61, 2,6-Diisopropyl-3-hydroxymethyl-4-(4-fluorophenyl)-5-[(3,5dimethylphenyl)thio]methylpyridine]",3400
4,"C=CCc1c(C(C)C)nc(C(C)C)c(CO)c1-c1ccc(F)cc1 [Example 87, 2,6-Diisopropyl-3-hydroxymethyl-4-(4fluorophenyl)-5-(2-propenyl)-pyridine]",1900
5,"CCCC=Cc1c(C(C)C)nc(C(C)C)c(CO)c1-c1ccccc1F [Example 137, 2,6-Diisopropyl-3-hydroxymethyl-4-(2-fluorophenyl)-5-(pent-1-enyl)-pyridine]",11000
6,"Cc1ccccc1CCCc1c(C(C)C)nc(C(C)C)c(CO)c1-c1ccc(F)cc1 [Example 84, 2,6-Diisopropyl-3-hydroxymethyl-4-(4-fluorophenyl)-5-[3-(2-methylphenyl)propyl]pyridine]",1900
7,"CCc1ccc(SCc2c(C(C)C)nc(C(C)C)c(CO)c2-c2ccc(F)cc2)cc1 [Example 62, 2,6-Diisopropyl-3-hydroxymethyl-4-(4-fluorophenyl)-5-[(4-ethyl-phenyl)thio]methylpyridine]",1100
8,CC(C)c1nc(C(C)C)c(CCCc2ccccc2)c(-c2ccc(F)cc2)c1CO [Example 83],650
9,"CC(C)c1nc(C(C)C)c(CN2CCCCC2)c(-c2ccc(F)cc2)c1CO [Example 70, 2,6-Diisopropyl-3-hydroxymethyl-4-(4-fluorophenyl)-5-(piperidinomethyl)pyridine]",12000
10,"COc1cccc(SCc2c(C(C)C)nc(C(C)C)c(CO)c2-c2ccc(F)cc2)c1 [Example 54, 2,6-Diisopropyl-3-hydroxymethyl-4-(4-fluorophenyl)-5-[(3-methyoxy-phenyl)thio]methylpyridine]",1800
11,Cc1c(C(C)C)nc(C(C)C)c(CO)c1-c1ccc(F)cc1 [Example 81],7500
12,"CC(C)c1nc(C(C)C)c(CCc2ccccc2)c(-c2ccc(F)cc2)c1CO [Example 37, 2,6-Diisopropyl-3-hydroxymethyl-4-(4-fluorophenyl)-5-(2-phenylethyl)pyridine]",750
13,"Cc1ccccc1SCc1c(C(C)C)nc(C(C)C)c(CO)c1-c1ccc(F)cc1 [Example 58, 2,6Diisopropyl-3-hydroxymethyl-4-(4-fluorophenyl)-5-[(2-methyl-phenyl)thio]methylpyridine]",1500
14,"CC(C)c1nc(C(C)C)c(CSc2cccc3ccccc23)c(-c2ccc(F)cc2)c1CO [Example 51, 2,6-Diisopropyl-3-hydroxymethyl-4-(4-fluorophenyl)-5-(1-naphthylthio)-methylpyridine]",16000
